Results from PMC8426238, “Synthesis and preclinical evaluation of [^11C]MTP38 as a novel PET ligand for phosphodiesterase 7 in the brain” (European Journal of Nuclear Medicine and Molecular Imaging, 2021).

Legend:
[1] = biological target: T1, Platelet Activating Factor (PAF) (Homo sapiens, UniProt P25105); experiment: off-target screen panel; type: binding; conditions: Human platelets, [^3H]PAF
T1 construct: purchased Eurofins Panlabs Discovery Services (Taiwan)

[2] = biological target: T2, Histamine H1 (Homo sapiens, UniProt P35367); experiment: off-target screen panel; type: binding; conditions: Human recombinant, [^3H]Pyrilamine
T2 construct: purchased Eurofins Panlabs Discovery Services (Taiwan)
T2 sequence (P35367 whole entry): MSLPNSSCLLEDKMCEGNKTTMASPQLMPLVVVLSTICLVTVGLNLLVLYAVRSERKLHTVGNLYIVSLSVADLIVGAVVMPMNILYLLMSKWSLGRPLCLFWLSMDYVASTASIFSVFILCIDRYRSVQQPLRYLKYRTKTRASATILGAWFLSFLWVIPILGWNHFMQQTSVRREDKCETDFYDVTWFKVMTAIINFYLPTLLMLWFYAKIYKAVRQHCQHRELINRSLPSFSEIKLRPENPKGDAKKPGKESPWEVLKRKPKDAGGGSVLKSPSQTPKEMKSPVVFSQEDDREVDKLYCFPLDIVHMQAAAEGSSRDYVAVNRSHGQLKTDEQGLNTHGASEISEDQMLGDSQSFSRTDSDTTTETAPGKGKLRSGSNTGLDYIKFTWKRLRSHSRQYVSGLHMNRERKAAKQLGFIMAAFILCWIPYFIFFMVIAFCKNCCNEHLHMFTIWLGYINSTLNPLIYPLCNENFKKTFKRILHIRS

[3] = biological target: T3, Serotonin (5-Hydroxytryptamine) 5-HT1A (Homo sapiens, UniProt P08908); experiment: off-target screen panel; type: binding; conditions: Human recombinant, [^3H]8-OH-DPAT
T3 construct: purchased Eurofins Panlabs Discovery Services (Taiwan)
T3 sequence (P08908 whole entry): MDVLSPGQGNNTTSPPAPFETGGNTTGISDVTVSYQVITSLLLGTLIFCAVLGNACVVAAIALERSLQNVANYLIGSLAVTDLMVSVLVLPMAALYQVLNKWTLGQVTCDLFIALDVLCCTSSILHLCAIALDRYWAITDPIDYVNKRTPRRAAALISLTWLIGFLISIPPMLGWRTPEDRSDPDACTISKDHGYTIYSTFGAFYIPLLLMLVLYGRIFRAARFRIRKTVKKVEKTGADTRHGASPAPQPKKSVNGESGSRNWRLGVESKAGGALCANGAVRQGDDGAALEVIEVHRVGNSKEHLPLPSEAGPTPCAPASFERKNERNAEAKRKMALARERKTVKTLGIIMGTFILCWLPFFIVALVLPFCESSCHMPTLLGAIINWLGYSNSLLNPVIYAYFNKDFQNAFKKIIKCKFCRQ

[4] = system: Purinergic P2Y; experiment: off-target screen panel; type: binding; conditions: Rat brain, [^35S]ATP-αS
[5] = system: Potassium Channel [KATP]; experiment: off-target screen panel; type: binding; conditions: Hamster pancreatic HIT-T15 beta cells, [^3H]Glyburide
[6] = biological target: T4, Adenosine A3 (Homo sapiens, UniProt P0DMS8); experiment: off-target screen panel; type: binding; conditions: Human recombinant, [^125I]AB-MECA
T4 construct: purchased Eurofins Panlabs Discovery Services (Taiwan)
T4 sequence (P0DMS8 whole entry): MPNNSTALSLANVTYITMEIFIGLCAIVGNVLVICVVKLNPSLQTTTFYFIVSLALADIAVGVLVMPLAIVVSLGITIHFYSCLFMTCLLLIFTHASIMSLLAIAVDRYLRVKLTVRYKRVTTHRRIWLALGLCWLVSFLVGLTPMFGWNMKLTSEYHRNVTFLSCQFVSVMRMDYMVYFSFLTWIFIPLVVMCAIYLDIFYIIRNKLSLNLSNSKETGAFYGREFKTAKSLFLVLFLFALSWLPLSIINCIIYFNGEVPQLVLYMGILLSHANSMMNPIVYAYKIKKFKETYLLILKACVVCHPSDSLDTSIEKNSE

[7] = system: PDE7; experiment: PET imaging in rats with [^11C]MTP38; type: in vivo, Wistar rats; conditions: unlabeled MTP38 0.5 mg/kg intravenously 2 min before radioligand
Protocol: Each rat was scanned multiple times with a shortest interval of 1 month. Rats were anesthetized with isoflurane (3% for induction and 2% for maintenance) throughout the experiment. The tail vein was cannulated for radioligand injection. Body temperature was maintained at around 37 °C using a heating pad. The head of the rat was fixed at the center of the field of view of an animal PET scanner (microPET Focus220, Siemens Medical Solutions, Malvern, USA). A 90-min list-mode data acquisition was started simultaneously with intravenous administration of [^11C]MTP38. The list-mode data were sorted into 3D sinograms, which were then Fourier-rebinned into 2D sinograms (frames: 10 s × 6, 30 s × 8, 1 min × 5, 2 min × 10, and 5 min × 12). The sinograms were reconstructed with a filtered back-projection algorithm using a Hanning filter with a cut-off at the Nyquist frequency (0.5 mm^−1).
Along with baseline scans, we conducted blockade PET experiments according to the following pretreatment protocols: (1) unlabeled MTP38 (0.5 mg/kg) was administered intravenously at 2 min before radioligand injection, and (2) MTP-X (100 mg/kg) was administered orally at 1 h before radioligand injection.
PET images were co-registered manually onto the magnetic resonance (MR) template image. Details of co-registration were described elsewhere. Regions of interest (ROIs) were placed on the striatum as a target region and on the cerebellum (gray matter) as a reference region according to the expression of PDE7B mRNA in the rat brain [6], and time-activity curves (TACs) were generated for each ROI. Radioactivity in the brain was normalized with injected radioactivity and body weight, and expressed as standardized uptake value (SUV). Then the SUV ratio between the striatum and cerebellum was obtained to estimate the radioligand binding in the target region in baseline and blockade experiments.

[8] = system: PDE7; experiment: In vitro autoradiography of monkey brain sections with [^11C]MTP38; type: binding, rhesus monkeys; conditions: [^11C]MTP38 2 nM, unlabeled MTP38 10 μM
Protocol: In vitro autoradiography was performed using 20-μm-thick fresh-frozen brain sections derived from Sprague-Dawley rats and rhesus monkeys. The sections were preincubated for 10 min in 50 mM Tris-HCl buffer (pH 7.4) at room temperature. These samples were then incubated for 60 min at room temperature in fresh buffer containing [^11C]MTP38 (2 nM) with or without unlabeled MTP38 (10 μM), MTP-X (4 μM), or MT-3014 (40 nM). The concentrations of MTP-X and MT-3014 were more than 400-fold of reported IC50 values of these agents. After the incubation, the brain sections were immersed twice in cold buffer for 3 min, dipped in cold distilled water for 10 s, and dried with warm airflow. Then the sections were contacted with imaging plates (BAS-MS2025, Fujifilm, Tokyo, Japan) for 60 min. The imaging plates were scanned with an imaging plate reader (BAS5000, Fujifilm, Tokyo, Japan), and the images were analyzed with the MultiGuage software (ver. 3.0, Fujifilm, Tokyo, Japan).

[9] = biological target: T5, Adrenergic α1D (Homo sapiens, UniProt P25100); experiment: off-target screen panel; type: binding; conditions: Human recombinant, [^3H]Prazosin
T5 construct: purchased Eurofins Panlabs Discovery Services (Taiwan)
T5 sequence (P25100 whole entry): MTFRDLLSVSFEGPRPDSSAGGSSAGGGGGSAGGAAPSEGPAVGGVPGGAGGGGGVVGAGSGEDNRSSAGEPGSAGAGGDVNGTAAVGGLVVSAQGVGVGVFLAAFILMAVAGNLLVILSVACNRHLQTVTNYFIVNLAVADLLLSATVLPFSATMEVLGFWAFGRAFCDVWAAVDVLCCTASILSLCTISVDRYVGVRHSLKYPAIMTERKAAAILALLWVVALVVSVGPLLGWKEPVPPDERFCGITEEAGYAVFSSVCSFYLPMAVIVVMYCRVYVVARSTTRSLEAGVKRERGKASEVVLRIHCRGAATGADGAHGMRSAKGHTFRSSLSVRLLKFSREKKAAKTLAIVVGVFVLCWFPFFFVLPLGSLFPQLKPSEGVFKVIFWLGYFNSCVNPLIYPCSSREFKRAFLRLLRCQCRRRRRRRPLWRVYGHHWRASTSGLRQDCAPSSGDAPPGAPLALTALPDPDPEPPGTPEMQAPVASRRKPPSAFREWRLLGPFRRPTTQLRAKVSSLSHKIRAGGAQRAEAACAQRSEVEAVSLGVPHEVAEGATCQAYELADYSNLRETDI

[10] = system: Glutamate, NMDA, Agonism; experiment: off-target screen panel; type: binding; conditions: Rat cerebral cortex, [^3H]CGP-39653
[11] = biological target: T6, Adrenergic β1 (Homo sapiens, UniProt P08588); experiment: off-target screen panel; type: binding; conditions: Human recombinant, [^125I]Cyanopindolol
T6 construct: purchased Eurofins Panlabs Discovery Services (Taiwan)
T6 sequence (P08588 whole entry): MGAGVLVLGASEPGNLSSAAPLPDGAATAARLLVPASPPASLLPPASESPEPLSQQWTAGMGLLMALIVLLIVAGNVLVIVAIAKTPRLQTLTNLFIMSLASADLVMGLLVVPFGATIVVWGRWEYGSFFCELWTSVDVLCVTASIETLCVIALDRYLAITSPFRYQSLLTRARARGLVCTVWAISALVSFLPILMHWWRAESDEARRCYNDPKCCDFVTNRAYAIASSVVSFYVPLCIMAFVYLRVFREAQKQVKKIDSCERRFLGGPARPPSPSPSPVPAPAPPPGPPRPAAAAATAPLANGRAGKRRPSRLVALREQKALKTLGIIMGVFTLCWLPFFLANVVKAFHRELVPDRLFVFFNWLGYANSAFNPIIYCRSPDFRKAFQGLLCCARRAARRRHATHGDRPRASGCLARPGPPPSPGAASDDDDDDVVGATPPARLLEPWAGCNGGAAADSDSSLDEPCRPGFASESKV

T1 sequence (P25105 whole entry): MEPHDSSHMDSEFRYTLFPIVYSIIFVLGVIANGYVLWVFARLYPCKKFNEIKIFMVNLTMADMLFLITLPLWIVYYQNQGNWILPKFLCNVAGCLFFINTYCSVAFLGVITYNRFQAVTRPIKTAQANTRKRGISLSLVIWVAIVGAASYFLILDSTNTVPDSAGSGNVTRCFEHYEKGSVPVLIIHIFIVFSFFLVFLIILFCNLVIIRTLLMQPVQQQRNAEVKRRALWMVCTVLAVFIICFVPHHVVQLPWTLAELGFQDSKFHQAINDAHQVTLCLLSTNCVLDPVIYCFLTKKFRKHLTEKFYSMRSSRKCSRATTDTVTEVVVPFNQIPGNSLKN

Compound: C[C@@H]1CC[C@H](C)N(c2nnc3c(N)ncc(C#N)n23)C1 (relative stereo) [MTP38, 8-amino-3-(2S*,5R*-dimethyl-1-piperidyl)-[1,2,4]triazolo[4,3-a]pyrazine-5-carbonitrile]
- inhibition at 1 µM [1]: 4%
- inhibition at 1 µM [2]: -20%
- inhibition at 1 µM [3]: -5%
- Inhibition (%) at 1 μM [4]: -20%
- Inhibition (%) at 1 μM [5]: 5%
- inhibition at 1 µM [6]: 10%
- striatum-to-cerebellum ratio of SUV of [^11C]MTP38 after pretreatment [7]: around 1.1
- effect of blocker on striatal radioactivity of [^11C]MTP38 [8]: reduced the striatal radioactivity
- inhibition at 1 µM [9]: -3%
- Inhibition (%) at 1 μM [10]: -3%
- inhibition at 1 µM [11]: -2%
